Results taken from PubChem BioAssay AID248 (DTP/NCI, 2004).
“And” between values parts separate entries of the source, which are not always exact repeats. Equal entries are not always repeated. Toxic doses and inconclusive results are not listed. No stated cut-off is given here; in the data, active means T/C of 150% or more; inactive means T/C below 125%.

System: L1210 leukemia ip in BDF1 mice, survival T/C
Experiment: NCI In Vivo Anticancer Drug Screen. Data for tumor model L1210 Leukemia (intraperitoneal) in B6D2F1 (BDF1) mice
Conditions: endpoint: mean survival time, higher = longer survival
Outline: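 Transplantable tumor model; survival measured in treated vs vehicle control mice. Value = treated/control.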

[1] = dose: 100.0 mg/kg/injection, schedule: Q01DX001 (ip), vehicle: saline with Tween-80
[2] = dose: 200.0 mg/kg/injection, schedule: Q01DX001 (ip), vehicle: saline with Tween-80
[3] = dose: 50.0 mg/kg/injection, schedule: Q01DX009 (ip), vehicle: saline with Tween-80
[4] = dose: 100.0 mg/kg/injection, schedule: Q01DX009 (ip), vehicle: saline with Tween-80
[5] = dose: 100.0 mg/kg/injection, schedule: Q04DX003 (ip), vehicle: saline with Tween-80
[6] = dose: 200.0 mg/kg/injection, schedule: Q04DX003 (ip), vehicle: saline with Tween-80
[7] = dose: 400.0 mg/kg/injection, schedule: Q04DX003 (ip), vehicle: saline with Tween-80
[8] = dose: 100.0 mg/kg/injection, schedule: Q01DX001 (ip), vehicle: other
[9] = dose: 200.0 mg/kg/injection, schedule: Q01DX001 (ip), vehicle: other
[10] = dose: 100.0 mg/kg/injection, schedule: Q01DX001 (ip), vehicle: saline

Measured: T/C

Nc1cccc(OCc2nc(N)nc(N)c2-c2ccc(Cl)c(Cl)c2)c1
inactive: [1] 97 % of control | [2] 90 % of control

CC(=O)c1cccc(NS(=O)(=O)c2ccc(Cl)cc2)c1
inactive: dose: 100.0 mg/kg/injection, schedule: Q04DX002 (ip), vehicle: Klucel (hydroxypropylcellulose) (HPC) 94 % of control | dose: 200.0 mg/kg/injection, schedule: Q04DX002 (ip), vehicle: Klucel (hydroxypropylcellulose) (HPC) 100 % of control | dose: 400.0 mg/kg/injection, schedule: Q04DX002 (ip), vehicle: Klucel (hydroxypropylcellulose) (HPC) 91 % of control

COC(=O)C(CSCSC)NC(=O)/C=C/c1ccccc1Cl (configuration not stated)
inactive: [3] 97 % of control and 86 % of control | [4] 92 % of control | [5] 94 % of control | dose: 200.0 mg/kg/injection, schedule: Q01DX009 (ip), vehicle: saline with Tween-80 93 % of control and 92 % of control | [6] 91 % of control | [7] 87 % of control

CC1CC(O)C([N+](=O)[O-])C(O)C1 (configuration not stated)
inactive: dose: 12.5 mg/kg/injection, schedule: Q01DX009 (ip), vehicle: saline 102 % of control

NC1=NC(=O)/C(=C/c2ccco2)S1
inactive: dose: 75.0 mg/kg/injection, schedule: Q01DX001 (ip), vehicle: saline 98 % of control | dose: 150.0 mg/kg/injection, schedule: Q01DX001 (ip), vehicle: saline 93 % of control | dose: 300.0 mg/kg/injection, schedule: Q01DX001 (ip), vehicle: saline 90 % of control

O=C(CCl)Oc1cccc([N+](=O)[O-])c1
inactive: dose: 25.0 mg/kg/injection, schedule: Q01DX009 (ip), vehicle: saline with Tween-80 92 % of control | [3] 112 % of control | [4] 107 % of control | [5] 91 % of control | [6] 96 % of control | [7] 94 % of control

CSc1nc(O)cc(=O)n1C
inactive: dose: 100.0 mg/kg/injection, schedule: Q01DX Z (ip), vehicle: methylcellulose (MC) 95 % of control | dose: 200.0 mg/kg/injection, schedule: Q01DX Z (ip), vehicle: methylcellulose (MC) 101 % of control

O=Cc1ccc2cc(Cl)ccc2n1
inactive: [8] 93 % of control | [9] 110 % of control | dose: 400.0 mg/kg/injection, schedule: Q01DX001 (ip), vehicle: other 106 % of control

COc1ccc(Nc2ccc(O)c3c2C(=O)c2ccccc2C3=O)c(Br)c1
inactive: [10] 101 % of control | dose: 200.0 mg/kg/injection, schedule: Q01DX001 (ip), vehicle: saline 95 % of control | dose: 400.0 mg/kg/injection, schedule: Q01DX001 (ip), vehicle: saline 97 % of control

NC1=NC(c2ccccc2)N(c2ccccc2)C(N)=N1 (configuration not stated)
inactive: dose: 50.0 mg/kg/injection, schedule: Q01DX001 (ip), vehicle: saline 99 % of control | [10] 104 % of control

c1ccc(N2CN(c3ccccc3)N(c3ccccc3)CN2c2ccccc2)cc1
inactive: [8] 92 % of control | [9] 89 % of control

CC(CCOCC1CO1)OCC1CO1 (configuration not stated)
inactive: dose: 100.0 mg/kg/injection, schedule: Q01DX009 (ip), vehicle: saline 101 % of control | dose: 100.0 mg/kg/injection, schedule: Q04DX003 (ip), vehicle: saline 106 % of control | dose: 200.0 mg/kg/injection, schedule: Q01DX009 (ip), vehicle: saline 113 % of control | dose: 200.0 mg/kg/injection, schedule: Q04DX003 (ip), vehicle: saline 105 % of control | dose: 400.0 mg/kg/injection, schedule: Q01DX009 (ip), vehicle: saline 120 % of control | dose: 400.0 mg/kg/injection, schedule: Q04DX003 (ip), vehicle: saline 120 % of control

C(CCCCCC1CCCC2CCCCC12)CCCCC1CCCC2CCCCC12 (configuration not stated)
inactive: [1] 98 % of control | [2] 98 % of control | dose: 400.0 mg/kg/injection, schedule: Q01DX001 (ip), vehicle: saline with Tween-80 98 % of control

Nc1ccc(OC(F)(F)C(F)Cl)cc1 (configuration not stated)
inactive: dose: 100.0 mg/kg/injection, schedule: Q01DX009 (ip), vehicle: Klucel (hydroxypropylcellulose) (HPC) 97 % of control | dose: 100.0 mg/kg/injection, schedule: Q04DX003 (ip), vehicle: Klucel (hydroxypropylcellulose) (HPC) 97 % of control | dose: 200.0 mg/kg/injection, schedule: Q01DX009 (ip), vehicle: Klucel (hydroxypropylcellulose) (HPC) 99 % of control | dose: 200.0 mg/kg/injection, schedule: Q04DX003 (ip), vehicle: Klucel (hydroxypropylcellulose) (HPC) 100 % of control | dose: 400.0 mg/kg/injection, schedule: Q01DX009 (ip), vehicle: Klucel (hydroxypropylcellulose) (HPC) 116 % of control | dose: 400.0 mg/kg/injection, schedule: Q04DX003 (ip), vehicle: Klucel (hydroxypropylcellulose) (HPC) 101 % of control

CC(C)(/C=N/N=C(N)N)CCC#N
inactive: dose: 60.0 mg/kg/injection, schedule: Q01DX Z (oral), vehicle: saline 98 % of control | dose: 120.0 mg/kg/injection, schedule: Q01DX Z (oral), vehicle: saline 109 % of control | dose: 240.0 mg/kg/injection, schedule: Q01DX Z (oral), vehicle: saline 103 % of control | dose: 480.0 mg/kg/injection, schedule: Q01DX Z (oral), vehicle: saline 94 % of control and 116 % of control
